We go through nine compounds from patent publication US6365617B1, “Indole and indazole urea-peptoids as thrombin receptor antagonists” (Ortho-McNeil Pharmaceutical, Inc., priority 1999, dated 2002).

Molecules are shown by their SMILES. Where two headings read alike, the source gives them in different places.

Test [1] deals with gel-filtered platelets (thrombin-induced aggregation). Kind of test: In vitro inhibition of thrombin-induced gel-filtered platelet aggregation assay. The format is cell-based. Particulars: platelet aggregation stimulated by thrombin, gel-filtered human platelets, read-out: GFP Aggr. IC50. As to the method:
In Vitro Inhibition Of Thrombin-induced Gel-filtered Platelet Aggregation Assay
The percentage of platelet aggregation is calculated as an increase in light transmission of compound-treated platelet concentrate vs. control-treated platelet concentrate. Human blood is obtained from drug free, normal donors in tubes containing 0.13M sodium citrate. Platelet rich plasma (PRP) is collected by centrifugation of whole blood at 200×g for 10 min at 25° C. The PRP (5 mL) is gel filtered through Sepharose 2B (bed volume 50 mL), and the platelet count is adjusted to 2×10^7 platelets per sample. The following constituents are added to a siliconized cuvette: concentrated platelet filtrate and Tyrode's buffer (0.14M NaCl, 0.0027M KCl, 0.012M NaHCO3, 0.76 mM Na2HPO4, 0.0055M glucose, 2 mg/mL BSA and 5.0 mM HEPES @ pH 7.4) in an amount equal to 350 μL, 50 μL of 20 mM calcium and 50 μL of the test compound. Aggregation is monitored in a BIODATA aggregometer for the 3 min following the addition of agonist (thrombin 50 μL of 1 unit/mL).

The target of test [2] is T1, thrombin receptor (PAR-1) (Homo sapiens, UniProt P25116).
T1 construct: CHRF membranes (Jones, Biochim. Biophys. Acta 1992, 1136, 272) are thawed from −70° C; endogenous in cells; host or cells: CHRF cell membranes
T1 sequence (P25116 22-425): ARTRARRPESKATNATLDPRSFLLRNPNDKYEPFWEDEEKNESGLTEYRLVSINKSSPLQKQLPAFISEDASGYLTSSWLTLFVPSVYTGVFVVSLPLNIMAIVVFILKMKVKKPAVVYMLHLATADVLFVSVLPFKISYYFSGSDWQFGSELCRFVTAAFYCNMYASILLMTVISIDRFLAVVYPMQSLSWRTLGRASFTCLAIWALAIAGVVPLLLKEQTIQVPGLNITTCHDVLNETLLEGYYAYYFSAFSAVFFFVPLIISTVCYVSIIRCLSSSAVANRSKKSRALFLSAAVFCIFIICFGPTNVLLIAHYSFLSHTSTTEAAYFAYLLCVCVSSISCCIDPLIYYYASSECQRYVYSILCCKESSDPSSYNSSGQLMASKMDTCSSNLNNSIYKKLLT
The test is described as follows: In vitro thrombin receptor binding assay (CHRF membranes, tritiated 721-40). As to the method:
In Vitro Thrombin Receptor Binding Assay
CHRF membranes (Jones, Biochim. Biophys. Acta 1992, 1136, 272) are thawed from −70° C., centrifuged at maximum speed for 5 min, washed twice with binding buffer (50 mM HEPES containing 5 mM MgCl2 and 0.1% BSA), and re-suspended in binding buffer ([…]). 100 μL of membranes are added to the 24-Wallac plates and delivered to the Tomtech apparatus. In a typical experiment, 6 μL of samples (from a 125 μg/mL intermediary plate, 20% DMSO) and 44 μL buffer are delivered to the plates (final conc. of compounds is 3.7 μg/mL, 0.6% DMSO). Similarly, 6 μL 20% DMSO and 44 μL buffer are delivered to both column 1 (NSB) and column 12 (TB). 10 μL Ser-pFPhe-Har-Leu-Har-Lys-Tyr-NH2 (721-40; 500 μM in deionized water) is added to column 1. 50 μL tritiated 721-40 (specific activity 46 Ci/mmol) is added to all the wells. The plates are mixed well for 20 seconds, incubated for 30 min, and then harvested with 10 mM HEPES/138 mM NaCl using the Skatron harvester. The filters (GF/C Brandel FPXLR 296) are presoaked 3 h in 0.5% polyethylenimine in HEPES/0.1M N-acetylglucosamine) are set in saran wrap and dried for 3 min in the microwave, and placed in sample bags (Wallac 1450-432). 4.5 mL scintillation fluid (Wallac, Betaplate Scint 1205-440) is added. The bags are sealed, placed in filter cassettes (Wallac 1450-104), and analyzed on the microbeta counter.

The mark [3] stands for this setting: Table 1, read-out: Recptr Bdg. IC50.
The mark [4] stands for this setting: Table 2, read-out: Recptr Bdg. IC50.

For orientation: IC50 means the concentration that gives 50% inhibition. Turning to `NCCCN(Cc1cccs1)C(=O)[C@H](Cc1ccc(F)c(F)c1)NC(=O)Nc1ccc2c(CN3CCCC3)cn(Cc3c(Cl)cccc3Cl)c2c1` [Compound 6, Benzene Propanamide, N-(3-aminopropyl)-N-(2-thiophenemethyl)-α-[[[[[1-(2,6-dichlorophenyl)methyl]-3-(1-pyrrolidinylmethyl)-1H-indol-6-yl]amino]carbonyl]amino]-3,4-difluoro-, (αS)-], the figures for the half-maximal inhibitory concentration (IC50) in test [1] (Table 1) and in test [2] (setting [3]) were 0.6 µM and 10.3 µM, respectively.

For the compound `N=C(N)NCCC[C@H](NC(=O)CN(CCCCCN)C(=O)Nc1ccc2c(CN3CCCC3)cn(Cc3c(Cl)cccc3Cl)c2c1)C(=O)NCc1ccccc1` [Compound 13], the IC50 was 1 µM in test [1] (Table 2) and over 100 µM in test [2] (setting [4]).

In the case of `N=C(N)NCCC[C@H](NC(=O)CN(Cc1ccc(F)cc1)C(=O)Nc1ccc2c(CN3CCCC3)cn(Cc3c(Cl)cccc3Cl)c2c1)C(=O)NCc1ccccc1` [Compound 15, N-4-Fluorophenylmethyl-N-{[1-(2,6-dichlorophenyl)methyl-3-(1-pyrrolidinylmethyl)-1H-indol-6-yl]aminocarbonyl}-clycinyl-L-arginin-N-benzyl-amide], the concentration for half-maximal inhibition (IC50) is 2.1 µM in test [1] (Table 2) and 8.1 µM in test [2] (setting [4]).

For the compound `N=C(N)NCCC[C@H](NC(=O)CN(Cc1ccc(Cl)cc1)C(=O)Nc1ccc2c(CN3CCCC3)cn(Cc3c(Cl)cccc3Cl)c2c1)C(=O)NCc1ccccc1` [Compound 14], the concentration for half-maximal inhibition (IC50) in test [1] (Table 2) amounted to 6.3 µM; in test [2] (setting [4]), 6.9 µM.

Turning to `NCCCCN(CC(=O)NCc1ccccc1)C(=O)[C@H](Cc1ccc(F)c(F)c1)NC(=O)Nc1ccc2c(CN3CCCC3)cn(Cc3c(Cl)cccc3Cl)c2c1` [Compound 4], the half-inhibitory concentration (IC50) in test [1] (Table 1) came to 0.26 µM; in test [2] (setting [3]), 0.22 µM.

On to `NCCN(CC(=O)NCc1ccccc1)C(=O)[C@H](Cc1ccc(F)c(F)c1)NC(=O)Nc1ccc2c(CN3CCCC3)cn(Cc3c(Cl)cccc3Cl)c2c1` [Compound 2], for which the half-inhibitory concentration (IC50) in test [1] (Table 1) worked out at 1.7 µM; in test [2] (setting [3]), 0.3 µM.

On to `NCCN(CC(=O)NCc1ccccc1)C(=O)[C@H](Cc1ccc(F)c(F)c1)NC(=O)Nc1ccc2c(CN3CCCC3)nn(Cc3c(Cl)cccc3Cl)c2c1` [Compound 1], for which the 50% inhibitory concentration (IC50) in test [1] (Table 1) amounted to 1.3 µM; in test [2] (setting [3]), 0.5 µM.

`O=C(CN(Cc1ccccc1)C(=O)[C@H](Cc1ccc(F)c(F)c1)NC(=O)Nc1ccc2c(CN3CCCC3)cn(Cc3c(Cl)cccc3Cl)c2c1)NCc1ccccc1` [Compound 5]: the results for the IC50 in test [1] (Table 1) and in test [2] (setting [3]) were 22 µM and 0.38 µM, respectively.

Take `NCCCCN(CC(=O)NCc1ccccc1)C(=O)[C@H](Cc1ccc(F)c(F)c1)NC(=O)Nc1ccc2c(CN3CCCC3)nn(Cc3c(Cl)cccc3Cl)c2c1` [Compound 3]: the concentration for half-maximal inhibition (IC50) in test [1] (Table 1) came out at 0.26 µM; in test [2] (setting [3]), 0.3 µM.
